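Where inhibition never reached the appropriate level, the endpoint shown equals the highest concentration tested. Otherwise, values were interpolated linearly from a five-concentration, 48-hour dose response in 96-well plates. GI50 marks 50% less growth. TGI is the concentration that stops growth completely.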
Legend:
Experiment in all cases: inhibition of tumour cell growth, NCI panel, 48 h
SW-620 colon = system: SW-620 colon
SK-OV-3 ovarian = system: SK-OV-3 ovarian
OVCAR-3 ovarian = system: OVCAR-3 ovarian
BT-549 breast = system: BT-549 breast
CAKI-1 renal = system: CAKI-1 renal
HOP-92 NSCLC = system: HOP-92 NSCLC
EKVX NSCLC = system: EKVX NSCLC
UACC-257 melanoma = system: UACC-257 melanoma
HCC-2998 colon = system: HCC-2998 colon
NCI-H460 lung = system: NCI-H460 lung
NCI-H522 lung = system: NCI-H522 lung
MDA-MB-435 = system: MDA-MB-435
COLO 205 colon = system: COLO 205 colon
IGROV1 ovarian = system: IGROV1 ovarian
OVCAR-8 ovarian = system: OVCAR-8 ovarian
ACHN renal = system: ACHN renal
SK-MEL-5 melanoma = system: SK-MEL-5 melanoma
HS 578T breast = system: HS 578T breast
MOLT-4 leukemia = system: MOLT-4 leukemia
SF-295 CNS = system: SF-295 CNS
TK-10 renal = system: TK-10 renal
UO-31 renal = system: UO-31 renal
SK-MEL-28 melanoma = system: SK-MEL-28 melanoma
OVCAR-5 ovarian = system: OVCAR-5 ovarian
DU-145 prostate = system: DU-145 prostate
HL-60(TB) leukemia = system: HL-60(TB) leukemia
HT29 colon = system: HT29 colon
U251 CNS = system: U251 CNS
SF-268 CNS = system: SF-268 CNS
786-0 renal = system: 786-0 renal
OVCAR-4 ovarian = system: OVCAR-4 ovarian
MALME-3M melanoma = system: MALME-3M melanoma
M14 melanoma = system: M14 melanoma
SF-539 CNS = system: SF-539 CNS
SR leukemia = system: SR leukemia
LOX IMVI melanoma = system: LOX IMVI melanoma
HCT-15 colon = system: HCT-15 colon
SNB-75 CNS = system: SNB-75 CNS
SN12C renal = system: SN12C renal
NCI/ADR-RES ovarian = system: NCI/ADR-RES ovarian
RPMI-8226 leukemia = system: RPMI-8226 leukemia
UACC-62 melanoma = system: UACC-62 melanoma
PC-3 prostate = system: PC-3 prostate
MCF7 breast = system: MCF7 breast
T-47D breast = system: T-47D breast
SK-MEL-2 melanoma = system: SK-MEL-2 melanoma
NCI-H226 lung = system: NCI-H226 lung
MDA-MB-231 breast = system: MDA-MB-231 breast
HOP-62 NSCLC = system: HOP-62 NSCLC
HCT-116 colon = system: HCT-116 colon
SNB-19 CNS = system: SNB-19 CNS
K-562 leukemia = system: K-562 leukemia
A549 NSCLC = system: A549 NSCLC
A498 renal = system: A498 renal
KM12 colon = system: KM12 colon

Q: For `COc1cc(/C=C/C(=O)CC(=O)/C=C/c2ccc(OC(=O)CCNC34CC5CC(CC(C5)C3)C4)c(OC)c2)ccc1OC(=O)CCNC12CC3CC(CC(C3)C1)C2`, which GI50 (SW-620 colon) is on record?
A: Its GI50 is 2.43 µM.

Q: And the TGI (SW-620 colon)?
A: The TGI was 6.03 µM.

Q: What about the GI50 (SK-OV-3 ovarian) of the same compound?
A: Its GI50 is 6.75 µM.

Q: What about the TGI (SK-OV-3 ovarian) of the same compound?
A: The TGI was 27.2 µM.

Q: What about the GI50 (OVCAR-3 ovarian) of the same compound?
A: Its GI50 is 4.09 µM.

Q: What about the TGI (OVCAR-3 ovarian) of the same compound?
A: The TGI was 21.9 µM.

Q: And the GI50 (BT-549 breast)?
A: The GI50 was 2.4 µM.

Q: What about the TGI (BT-549 breast) of the same compound?
A: Its TGI is 7.67 µM.

Q: And the GI50 (CAKI-1 renal)?
A: The GI50 was 2.51 µM.

Q: And the TGI (CAKI-1 renal)?
A: Its TGI is 9.33 µM.

Q: What about the GI50 (HOP-92 NSCLC) of the same compound?
A: Its GI50 is 2.64 µM.

Q: What about the TGI (HOP-92 NSCLC) of the same compound?
A: Its TGI is 17.6 µM.

Q: And the GI50 (EKVX NSCLC)?
A: The GI50 was 4.41 µM.

Q: And the TGI (EKVX NSCLC)?
A: The TGI was 12.9 µM.

Q: And the GI50 (UACC-257 melanoma)?
A: The GI50 was 4.24 µM.

Q: And the TGI (UACC-257 melanoma)?
A: Its TGI is 19.4 µM.

Q: And the GI50 (HCC-2998 colon)?
A: Its GI50 is 1.93 µM.

Q: What about the TGI (HCC-2998 colon) of the same compound?
A: The TGI was 4.37 µM.

Q: What about the GI50 (NCI-H460 lung) of the same compound?
A: The GI50 was 2.5 µM.

Q: What about the TGI (NCI-H460 lung) of the same compound?
A: Its TGI is 6.33 µM.

Q: What about the GI50 (NCI-H522 lung) of the same compound?
A: The GI50 was 4.27 µM.

Q: What about the TGI (NCI-H522 lung) of the same compound?
A: The TGI was 16.1 µM.

Q: And the GI50 (MDA-MB-435)?
A: Its GI50 is 2.08 µM.

Q: What about the TGI (MDA-MB-435) of the same compound?
A: The TGI was 6.53 µM.

Q: What about the GI50 (COLO 205 colon) of the same compound?
A: The GI50 was 4.71 µM.

Q: What about the TGI (COLO 205 colon) of the same compound?
A: Its TGI is 20.8 µM.

Q: What about the GI50 (IGROV1 ovarian) of the same compound?
A: The GI50 was 3.52 µM.

Q: What about the TGI (IGROV1 ovarian) of the same compound?
A: Its TGI is 8.08 µM.

Q: What about the GI50 (OVCAR-8 ovarian) of the same compound?
A: The GI50 was 3.71 µM.

Q: What about the TGI (OVCAR-8 ovarian) of the same compound?
A: Its TGI is 13.4 µM.

Q: And the GI50 (ACHN renal)?
A: The GI50 was 11 µM.

Q: And the TGI (ACHN renal)?
A: The TGI was 23.6 µM.

Q: What about the GI50 (SK-MEL-5 melanoma) of the same compound?
A: Its GI50 is 3.28 µM.

Q: And the TGI (SK-MEL-5 melanoma)?
A: The TGI was 12.6 µM.

Q: And the GI50 (HS 578T breast)?
A: Its GI50 is 2.85 µM.

Q: What about the TGI (HS 578T breast) of the same compound?
A: Its TGI is 9.17 µM.

Q: What about the GI50 (MOLT-4 leukemia) of the same compound?
A: Its GI50 is 3.08 µM.

Q: What about the TGI (MOLT-4 leukemia) of the same compound?
A: The TGI was 16.2 µM.

Q: What about the GI50 (SF-295 CNS) of the same compound?
A: The GI50 was 2.56 µM.

Q: What about the TGI (SF-295 CNS) of the same compound?
A: The TGI was 6.99 µM.

Q: What about the GI50 (TK-10 renal) of the same compound?
A: Its GI50 is 7.09 µM.

Q: And the TGI (TK-10 renal)?
A: Its TGI is 22.6 µM.

Q: And the GI50 (UO-31 renal)?
A: Its GI50 is 3.45 µM.

Q: What about the TGI (UO-31 renal) of the same compound?
A: The TGI was 14.8 µM.

Q: And the GI50 (SK-MEL-28 melanoma)?
A: Its GI50 is 3.79 µM.

Q: What about the TGI (SK-MEL-28 melanoma) of the same compound?
A: The TGI was 17.2 µM.

Q: What about the GI50 (OVCAR-5 ovarian) of the same compound?
A: Its GI50 is 4.34 µM.

Q: What about the TGI (OVCAR-5 ovarian) of the same compound?
A: The TGI was 16.8 µM.

Q: What about the GI50 (DU-145 prostate) of the same compound?
A: The GI50 was 1.4 µM.

Q: And the TGI (DU-145 prostate)?
A: Its TGI is 3.13 µM.

Q: And the GI50 (HL-60(TB) leukemia)?
A: The GI50 was 2.27 µM.

Q: And the TGI (HL-60(TB) leukemia)?
A: The TGI was 9.27 µM.

Q: And the GI50 (HT29 colon)?
A: Its GI50 is 1.75 µM.

Q: What about the TGI (HT29 colon) of the same compound?
A: Its TGI is 3.2 µM.

Q: And the GI50 (U251 CNS)?
A: Its GI50 is 3.39 µM.

Q: And the TGI (U251 CNS)?
A: Its TGI is 12 µM.

Q: What about the GI50 (SF-268 CNS) of the same compound?
A: The GI50 was 3.01 µM.

Q: And the TGI (SF-268 CNS)?
A: Its TGI is 13.2 µM.

Q: And the GI50 (786-0 renal)?
A: Its GI50 is 3.2 µM.

Q: And the TGI (786-0 renal)?
A: The TGI was 21.3 µM.

Q: What about the GI50 (OVCAR-4 ovarian) of the same compound?
A: Its GI50 is 11 µM.

Q: And the TGI (OVCAR-4 ovarian)?
A: The TGI was over 100 µM.

Q: What about the GI50 (MALME-3M melanoma) of the same compound?
A: Its GI50 is 5.28 µM.

Q: What about the TGI (MALME-3M melanoma) of the same compound?
A: Its TGI is 17.9 µM.

Q: What about the GI50 (M14 melanoma) of the same compound?
A: Its GI50 is 3.48 µM.

Q: And the TGI (M14 melanoma)?
A: The TGI was 14.1 µM.

Q: And the GI50 (SF-539 CNS)?
A: Its GI50 is 2.09 µM.

Q: And the TGI (SF-539 CNS)?
A: The TGI was 4.81 µM.

Q: What about the GI50 (SR leukemia) of the same compound?
A: The GI50 was 2.37 µM.

Q: What about the TGI (SR leukemia) of the same compound?
A: The TGI was 8.84 µM.

Q: And the GI50 (LOX IMVI melanoma)?
A: The GI50 was 1.96 µM.

Q: And the TGI (LOX IMVI melanoma)?
A: The TGI was 4.14 µM.

Q: What about the GI50 (HCT-15 colon) of the same compound?
A: Its GI50 is 4.49 µM.

Q: And the TGI (HCT-15 colon)?
A: The TGI was 17.6 µM.

Q: And the GI50 (SNB-75 CNS)?
A: Its GI50 is 4.85 µM.

Q: And the TGI (SNB-75 CNS)?
A: The TGI was 22.5 µM.

Q: And the GI50 (SN12C renal)?
A: The GI50 was 3.32 µM.

Q: What about the TGI (SN12C renal) of the same compound?
A: Its TGI is 17.8 µM.

Q: And the GI50 (NCI/ADR-RES ovarian)?
A: The GI50 was 8 µM.

Q: And the TGI (NCI/ADR-RES ovarian)?
A: The TGI was 49.9 µM.

Q: What about the GI50 (RPMI-8226 leukemia) of the same compound?
A: Its GI50 is 2.1 µM.

Q: And the TGI (RPMI-8226 leukemia)?
A: Its TGI is 6.01 µM.

Q: And the GI50 (UACC-62 melanoma)?
A: Its GI50 is 3.5 µM.

Q: What about the TGI (UACC-62 melanoma) of the same compound?
A: Its TGI is 13 µM.

Q: And the GI50 (PC-3 prostate)?
A: Its GI50 is 4.13 µM.

Q: And the TGI (PC-3 prostate)?
A: The TGI was 21.1 µM.

Q: What about the GI50 (MCF7 breast) of the same compound?
A: The GI50 was 2.36 µM.

Q: What about the TGI (MCF7 breast) of the same compound?
A: The TGI was 9.89 µM.

Q: What about the GI50 (T-47D breast) of the same compound?
A: Its GI50 is 5.89 µM.

Q: And the TGI (T-47D breast)?
A: The TGI was 59.8 µM.

Q: And the GI50 (SK-MEL-2 melanoma)?
A: The GI50 was 4.48 µM.

Q: What about the TGI (SK-MEL-2 melanoma) of the same compound?
A: The TGI was 16.3 µM.

Q: And the GI50 (NCI-H226 lung)?
A: Its GI50 is 11.8 µM.

Q: What about the TGI (NCI-H226 lung) of the same compound?
A: Its TGI is 30.5 µM.

Q: And the GI50 (MDA-MB-231 breast)?
A: The GI50 was 3.97 µM.

Q: And the TGI (MDA-MB-231 breast)?
A: The TGI was 25.3 µM.

Q: And the GI50 (HOP-62 NSCLC)?
A: Its GI50 is 3.99 µM.

Q: And the TGI (HOP-62 NSCLC)?
A: Its TGI is 16.6 µM.

Q: What about the GI50 (HCT-116 colon) of the same compound?
A: The GI50 was 2.37 µM.

Q: And the TGI (HCT-116 colon)?
A: Its TGI is 9.9 µM.

Q: And the GI50 (SNB-19 CNS)?
A: The GI50 was 4.65 µM.

Q: What about the TGI (SNB-19 CNS) of the same compound?
A: Its TGI is 18.4 µM.

Q: What about the GI50 (K-562 leukemia) of the same compound?
A: Its GI50 is 4.41 µM.

Q: And the TGI (K-562 leukemia)?
A: The TGI was over 100 µM.

Q: And the GI50 (A549 NSCLC)?
A: The GI50 was 10.3 µM.

Q: What about the TGI (A549 NSCLC) of the same compound?
A: The TGI was 28.5 µM.

Q: And the GI50 (A498 renal)?
A: Its GI50 is 4.61 µM.

Q: What about the TGI (A498 renal) of the same compound?
A: The TGI was 17.5 µM.

Q: What about the GI50 (KM12 colon) of the same compound?
A: The GI50 was 2.95 µM.

Q: What about the TGI (KM12 colon) of the same compound?
A: Its TGI is 7.8 µM.

From PubChem BioAssay (NCI)
